Values of other authors, collected in patent US8420131B2, “Composition for obesity treatment” (priority 2011, dated 2013).
Values belong to the molecule of their own block, whether it stands above or below them.

Legend:
[1] = in vivo
[2] = patients with PCOS
[3] = in vivo; remark: listed apart in the source
[4] = sixty depressed patients, added to imipramine therapy
[5] = system: human white preadipocytes
[6] = animal study
[7] = humans

SMILES: O[C@H]1[C@H](O)[C@@H](O)[C@H](O)[C@@H](O)[C@H]1O [inositol]
symptoms of depressed patients [1]: significant improvement | action of insulin / insulin sensitivity [2]: increases the action of insulin | decreasing the number of panic attacks, compared with fluvoxamine [3]: superior

SMILES: [Zn] [zinc]
depression scores [4]: significantly reduced

inhibition of the effect of lipase (lipase): potently inhibit
SMILES: CC(/C=C/C=C(\C)C(=O)O)=C\C=C\C=C(C)\C=C\C=C(/C)C(=O)O [crocetin]
potency compared with orlistat (dose of 50 mg/kg versus orlistat at 10 mg/kg): comparable | fat deposits (mice fed on a high fat diet): significantly reduced

SMILES: COc1ccc2cc3[n+](cc2c1OC)CCc1cc2c(cc1-3)OCO2 [berberine]
adipogenesis [5]: inhibit adipogenesis

inhibition of the effect of lipase (lipase): potently inhibit
SMILES: CC(/C=C/C=C(\C)C(=O)O[C@@H]1O[C@H](CO[C@@H]2O[C@H](CO)[C@@H](O)[C@H](O)[C@H]2O)[C@@H](O)[C@H](O)[C@H]1O)=C\C=C\C=C(C)\C=C\C=C(/C)C(=O)O[C@@H]1O[C@H](CO[C@@H]2O[C@H](CO)[C@@H](O)[C@H](O)[C@H]2O)[C@@H](O)[C@H](O)[C@H]1O [crocin]

SMILES: [Mg+2] [magnesium]
effect compared with imipramine [6]: comparable | effectiveness in treating depression compared with imipramine [7]: as effective as imipramine
